ChEMBL document CHEMBL5465560, “Selectivity Literature for EUbOPEN Chemogenomic Library” (2024)

Key:
[1] = target: T1, Calcium/calmodulin-dependent protein kinase type IV (Homo sapiens) (UniProt Q16566); test: Selectivity interaction (KinomeScan (DiscoverX)) EUB0001079a CAMK4; details: at 1 µM
T1 sequence (whole entry): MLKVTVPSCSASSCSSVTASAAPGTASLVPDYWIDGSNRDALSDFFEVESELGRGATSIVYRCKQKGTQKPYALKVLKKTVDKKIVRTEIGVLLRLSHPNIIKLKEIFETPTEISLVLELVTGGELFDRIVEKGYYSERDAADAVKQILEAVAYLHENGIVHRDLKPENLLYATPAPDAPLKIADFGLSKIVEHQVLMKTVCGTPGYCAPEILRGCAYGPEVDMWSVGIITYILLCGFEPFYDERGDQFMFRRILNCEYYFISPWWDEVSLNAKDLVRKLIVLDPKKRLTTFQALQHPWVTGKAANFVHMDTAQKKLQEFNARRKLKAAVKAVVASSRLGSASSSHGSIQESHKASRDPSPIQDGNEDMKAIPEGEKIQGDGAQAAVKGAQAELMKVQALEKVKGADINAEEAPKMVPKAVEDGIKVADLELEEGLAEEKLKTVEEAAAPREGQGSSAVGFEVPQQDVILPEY

[2] = target: T2, Serine/threonine-protein kinase D3 (Homo sapiens) (UniProt O94806); test: Selectivity interaction (KinomeScan (DiscoverX)) EUB0000666a PRKD3; details: at 10 µM
T2 sequence (whole entry): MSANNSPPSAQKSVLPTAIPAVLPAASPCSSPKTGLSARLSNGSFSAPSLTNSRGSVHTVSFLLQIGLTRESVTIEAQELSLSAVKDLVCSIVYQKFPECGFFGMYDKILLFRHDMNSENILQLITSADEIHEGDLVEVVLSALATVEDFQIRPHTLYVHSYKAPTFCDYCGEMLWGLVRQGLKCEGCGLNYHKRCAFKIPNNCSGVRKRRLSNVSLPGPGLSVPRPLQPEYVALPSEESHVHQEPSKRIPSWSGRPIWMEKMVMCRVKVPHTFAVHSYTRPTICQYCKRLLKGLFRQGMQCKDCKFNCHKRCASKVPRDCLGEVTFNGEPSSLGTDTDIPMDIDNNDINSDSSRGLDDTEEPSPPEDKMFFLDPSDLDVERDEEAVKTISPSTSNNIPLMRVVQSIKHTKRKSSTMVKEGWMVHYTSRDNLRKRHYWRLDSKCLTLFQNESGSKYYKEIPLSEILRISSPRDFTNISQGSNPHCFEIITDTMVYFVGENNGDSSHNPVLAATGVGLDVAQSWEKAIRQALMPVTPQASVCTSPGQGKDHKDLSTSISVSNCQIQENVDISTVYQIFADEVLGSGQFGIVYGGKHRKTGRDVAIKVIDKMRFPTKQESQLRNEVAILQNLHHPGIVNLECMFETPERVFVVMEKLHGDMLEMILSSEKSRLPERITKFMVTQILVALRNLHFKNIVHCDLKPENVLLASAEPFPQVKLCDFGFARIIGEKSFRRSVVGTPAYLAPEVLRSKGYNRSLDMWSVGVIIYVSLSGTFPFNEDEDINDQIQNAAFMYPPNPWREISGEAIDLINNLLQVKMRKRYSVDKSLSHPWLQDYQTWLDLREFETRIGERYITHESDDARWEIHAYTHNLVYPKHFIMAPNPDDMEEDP

[3] = target: NT-3 growth factor receptor (Homo sapiens, UniProt Q16288); details: at 10 µM
[4] = target: Protein-tyrosine kinase 6 (Homo sapiens, UniProt Q13882); test: Selectivity interaction (KinomeScan (DiscoverX)) EUB0001049a PTK6; details: at 1 µM
[5] = target: T3, Receptor-interacting serine/threonine-protein kinase 4 (Homo sapiens) (UniProt P57078); test: Selectivity interaction (Ambit KINOMEscan and KiNATiv profiling in Jurkat cells) EUB0000090b RIPK4; assay type: cell-based; details: at 1 µM
T3 sequence (whole entry): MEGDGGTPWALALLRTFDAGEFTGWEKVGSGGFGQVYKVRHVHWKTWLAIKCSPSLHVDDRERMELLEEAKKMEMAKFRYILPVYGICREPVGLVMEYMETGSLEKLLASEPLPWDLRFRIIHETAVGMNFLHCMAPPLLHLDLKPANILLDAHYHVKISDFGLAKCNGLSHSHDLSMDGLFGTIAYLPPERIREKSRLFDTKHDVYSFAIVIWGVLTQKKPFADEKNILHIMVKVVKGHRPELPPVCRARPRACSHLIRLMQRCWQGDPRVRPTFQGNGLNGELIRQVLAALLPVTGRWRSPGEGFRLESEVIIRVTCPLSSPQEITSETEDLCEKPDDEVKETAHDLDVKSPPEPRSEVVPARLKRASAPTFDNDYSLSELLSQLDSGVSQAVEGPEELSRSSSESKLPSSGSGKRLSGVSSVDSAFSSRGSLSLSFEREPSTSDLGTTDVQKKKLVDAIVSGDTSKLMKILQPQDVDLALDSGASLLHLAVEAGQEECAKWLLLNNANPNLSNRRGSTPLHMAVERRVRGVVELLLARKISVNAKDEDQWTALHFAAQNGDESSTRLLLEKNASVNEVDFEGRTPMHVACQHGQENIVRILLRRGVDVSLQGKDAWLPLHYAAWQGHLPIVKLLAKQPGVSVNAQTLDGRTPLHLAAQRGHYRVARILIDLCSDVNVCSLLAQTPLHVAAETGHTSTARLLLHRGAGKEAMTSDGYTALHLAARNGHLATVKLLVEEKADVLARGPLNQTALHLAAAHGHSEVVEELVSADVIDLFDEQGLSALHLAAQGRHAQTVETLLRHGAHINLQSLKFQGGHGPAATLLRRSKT

NT-3 growth factor receptor, sequence (Q16288 32-839 limits assumed): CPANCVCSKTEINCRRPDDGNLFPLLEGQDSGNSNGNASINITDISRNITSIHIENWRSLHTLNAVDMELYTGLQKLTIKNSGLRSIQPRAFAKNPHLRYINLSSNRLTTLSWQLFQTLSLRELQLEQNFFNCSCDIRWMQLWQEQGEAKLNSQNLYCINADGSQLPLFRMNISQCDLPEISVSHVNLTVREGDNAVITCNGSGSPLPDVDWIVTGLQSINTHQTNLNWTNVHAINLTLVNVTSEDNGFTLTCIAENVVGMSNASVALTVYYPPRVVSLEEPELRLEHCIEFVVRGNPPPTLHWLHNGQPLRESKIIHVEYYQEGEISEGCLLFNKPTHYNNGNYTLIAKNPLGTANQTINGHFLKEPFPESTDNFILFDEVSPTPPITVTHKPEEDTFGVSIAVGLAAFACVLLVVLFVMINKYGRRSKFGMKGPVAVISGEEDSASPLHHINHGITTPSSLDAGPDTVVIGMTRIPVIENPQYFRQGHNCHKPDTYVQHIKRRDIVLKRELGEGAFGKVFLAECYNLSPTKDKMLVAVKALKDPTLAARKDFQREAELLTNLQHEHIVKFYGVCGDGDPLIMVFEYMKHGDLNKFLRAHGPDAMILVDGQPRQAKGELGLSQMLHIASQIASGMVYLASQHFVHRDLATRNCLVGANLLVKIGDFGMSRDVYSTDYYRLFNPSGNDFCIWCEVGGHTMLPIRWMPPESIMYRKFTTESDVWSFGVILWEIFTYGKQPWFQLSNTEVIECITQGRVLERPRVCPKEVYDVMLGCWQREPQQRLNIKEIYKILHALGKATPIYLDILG
Protein-tyrosine kinase 6, sequence (Q13882 whole entry, looked up): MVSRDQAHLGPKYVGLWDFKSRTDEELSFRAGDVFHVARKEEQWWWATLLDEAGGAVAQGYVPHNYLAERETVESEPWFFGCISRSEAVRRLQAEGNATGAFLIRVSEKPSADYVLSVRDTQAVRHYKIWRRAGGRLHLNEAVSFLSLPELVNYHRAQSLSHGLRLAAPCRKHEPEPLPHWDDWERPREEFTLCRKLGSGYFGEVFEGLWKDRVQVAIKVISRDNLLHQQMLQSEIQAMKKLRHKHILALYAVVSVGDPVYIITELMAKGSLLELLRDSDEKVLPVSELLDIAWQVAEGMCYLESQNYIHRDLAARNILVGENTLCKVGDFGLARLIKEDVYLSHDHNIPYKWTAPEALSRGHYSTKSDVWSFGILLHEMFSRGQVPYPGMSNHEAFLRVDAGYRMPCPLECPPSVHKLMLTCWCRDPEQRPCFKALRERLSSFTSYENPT

How did the % of control [1] turn out when `Nc1cnc(N2CCc3cc(S(=O)(=O)Nc4c(F)cc(Cl)cc4F)cc(N4CCCC4=O)c32)nc1` [TP-020n] was run?
Its % of control is 96%.

`O=C(NOC[C@H](O)CO)c1ccc(F)c(F)c1Nc1ccc(I)cc1F` was tested. Which % of control [2] did it give?
Its % of control is 70%.

Which % of control [3] does the source give for `Cc1cc([C@@H](C)Nc2ccccc2C(=O)O)c2nc(N3CCOCC3)cc(=O)n2c1` [AZD-6482] here?
The % of control was 98%.

For `COc1cc(Nc2nc(C)cc(-c3cnn4nc(OC)ccc34)n2)cc(C(F)(F)F)c1`, which % of control [4] is on record?
The % of control was 100%.

`CN(C)C/C=C/C(=O)Nc1ccc(C(=O)N2CCCC(Nc3ncc(Cl)c(-c4c[nH]c5ccccc45)n3)C2)cc1` (stereo not given) was tested. Which % of control [5] did it give?
Its % of control is 86%.
